Consider five molecules from paper PMC6407913, “DREADD Agonist 21 Is an Effective Agonist for Muscarinic-Based DREADDs in Vitro and in Vivo” (ACS Pharmacology & Translational Science, 2018).

Details of data set [1]: method as in PMID 28324647. The note with it: following systemic administration of 10 mg/kg CNO; cited from earlier work.
Data set [2] in a line: brain and plasma exposure after i.p. administration. Format: in vivo, mice. To be noted: i.p. 0.1, 1 and 10 mg/kg, 30 min after administration.
Data set [3] has as its target T1, hM4Di (Homo sapiens, UniProt P08173, A203G/Y113C).
T1 sequence (P08173 1-479 Y113C/A203G): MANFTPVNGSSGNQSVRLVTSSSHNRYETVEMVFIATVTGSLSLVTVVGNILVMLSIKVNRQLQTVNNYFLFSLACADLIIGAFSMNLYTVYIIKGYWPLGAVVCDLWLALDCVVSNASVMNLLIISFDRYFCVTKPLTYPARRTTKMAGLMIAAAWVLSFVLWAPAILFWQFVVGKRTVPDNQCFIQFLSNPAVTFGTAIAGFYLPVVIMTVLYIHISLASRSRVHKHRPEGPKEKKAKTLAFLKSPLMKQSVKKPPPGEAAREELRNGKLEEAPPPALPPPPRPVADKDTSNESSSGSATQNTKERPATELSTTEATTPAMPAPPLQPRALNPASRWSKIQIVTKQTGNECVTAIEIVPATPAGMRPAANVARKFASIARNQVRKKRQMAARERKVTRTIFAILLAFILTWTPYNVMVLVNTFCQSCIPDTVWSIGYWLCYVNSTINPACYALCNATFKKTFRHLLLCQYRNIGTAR
Put plainly: whole-cell [3H]NMS competition binding.

For data set [4], the target named is T2, hM1Dq (Homo sapiens, UniProt P11229, A196G/Y106C).
T2 sequence (P11229 1-460 Y106C/A196G): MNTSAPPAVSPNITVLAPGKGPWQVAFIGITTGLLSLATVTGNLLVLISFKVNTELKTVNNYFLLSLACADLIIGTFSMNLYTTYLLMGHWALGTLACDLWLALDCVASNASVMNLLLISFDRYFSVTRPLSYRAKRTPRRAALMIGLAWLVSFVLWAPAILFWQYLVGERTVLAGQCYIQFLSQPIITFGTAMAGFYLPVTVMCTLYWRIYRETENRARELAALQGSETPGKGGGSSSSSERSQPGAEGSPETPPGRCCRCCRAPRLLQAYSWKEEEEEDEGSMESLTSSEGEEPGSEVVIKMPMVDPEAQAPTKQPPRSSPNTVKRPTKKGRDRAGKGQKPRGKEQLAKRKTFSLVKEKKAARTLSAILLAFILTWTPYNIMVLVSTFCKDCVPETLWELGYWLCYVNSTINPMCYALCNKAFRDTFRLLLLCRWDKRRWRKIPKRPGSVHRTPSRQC
Put plainly: ERK1/2 phosphorylation (pERK1/2) assay.

The target in data set [5] is T1, hM4Di. Put plainly: inhibition of isoproterenol-stimulated cAMP production. Format: cell-based. The arrangement: expressed in transfected cells. To be noted: inhibition of isoproterenol elevated cAMP, mean (±SEM). On the technique in general: Cyclic AMP is a second messenger, typically raised through Gs and lowered through Gi signalling.
In data set [6] the target is T3, hM1 (Homo sapiens, UniProt P11229).
T3 sequence (P11229 1-460): T2 sequence (P11229 1-460 Y106C/A196G) with C106Y, G196A
Put plainly: IP-One accumulation assay. To be noted: wildtype hM1. Format: cell-based.

Data set [7] concerns the target T3, hM1. Nature of the data set: ERK1/2 phosphorylation (pERK1/2) assay. The note with it: wildtype hM1. Format: cell-based.
Data set [8] addresses T2, hM1Dq. Nature of the data set: whole-cell [3H]NMS competition binding.
Data set [9] concerns the target T3, hM1. Nature of the data set: whole-cell [3H]NMS competition binding. To be noted: hM1, FlpIn CHO cells, mean (±SEM).
Data set [10] addresses T4, hM4 (Homo sapiens, UniProt P08173).
T4 construct: HA (hemagglutinin); expressed in transfected cells
T4 sequence (P08173 1-479): T1 sequence (P08173 1-479 Y113C/A203G) with C113Y, G203A
Nature of the data set: inhibition of isoproterenol-stimulated cAMP production. Format: cell-based. To be noted: hM4, inhibition of isoproterenol elevated cAMP, mean (±SEM).

The target of data set [11] is T4, hM4. Put plainly: whole-cell [3H]NMS competition binding. To be noted: hM4, FlpIn CHO cells, mean (±SEM).
For data set [12], the target named is T5, hM3Dq (Homo sapiens, UniProt P20309, A239G/Y149C).
T5 construct: expressed in transfected cells
T5 sequence (P20309 whole entry Y149C/A239G): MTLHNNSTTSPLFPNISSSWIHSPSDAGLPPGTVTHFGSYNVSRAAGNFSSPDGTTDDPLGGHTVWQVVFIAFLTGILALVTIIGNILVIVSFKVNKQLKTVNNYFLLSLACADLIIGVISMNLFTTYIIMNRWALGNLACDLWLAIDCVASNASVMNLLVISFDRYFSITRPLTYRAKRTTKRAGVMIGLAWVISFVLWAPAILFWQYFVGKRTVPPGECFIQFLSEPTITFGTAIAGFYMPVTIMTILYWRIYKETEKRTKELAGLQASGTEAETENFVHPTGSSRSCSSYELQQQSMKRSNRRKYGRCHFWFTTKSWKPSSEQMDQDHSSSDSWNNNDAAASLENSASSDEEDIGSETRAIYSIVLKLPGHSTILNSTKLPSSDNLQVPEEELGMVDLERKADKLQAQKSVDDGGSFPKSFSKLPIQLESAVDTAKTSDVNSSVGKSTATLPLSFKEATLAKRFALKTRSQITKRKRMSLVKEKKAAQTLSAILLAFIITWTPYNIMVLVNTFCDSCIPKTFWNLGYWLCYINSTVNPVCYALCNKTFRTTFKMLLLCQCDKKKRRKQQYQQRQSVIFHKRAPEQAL
Put plainly: Gq-mediated calcium release (FLIPR) assay. Format: cell-based. The note with it: CHO cells, mean ± SEM.

Data set [13] addresses T2, hM1Dq. Put plainly: IP-One accumulation assay.
For data set [14], the target named is T1, hM4Di. Put plainly: ERK1/2 phosphorylation (pERK1/2) assay.
The conditions of data set [15]: cited from earlier work.
The subject of data set [16] is hM3Dq expressed in ARC AgRP neurons. Nature of the data set: food intake, hM3Dq in ARC AgRP neurons (Agrp-ires-Cre mice).
Data set [17] deals with hM4Di expressed in PVH SIM1 neurons. Put plainly: food intake, hM4Di in PVH SIM1 neurons (Sim1-Cre mice).

Where a chain is given by its changes, count along the chain named. Read-outs that look alike come from different tables or passages of the source.

By Ki is commonly meant a measure of affinity in units of concentration, obtained from inhibition or displacement. Read a high Ki as weaker binding. Usually pKi stands for the Ki on a negative log10 scale, so that one unit is a factor of ten. A high value points to a small Ki.

For `Clc1ccc2c(c1)N=C(N1CCNCC1)c1ccccc1N2` [NDMC, N-desmethylclozapine], the “level in cerebrospinal fluid (CSF)” value in [1] was 43 nM.
In the case of `CN1CCN(C2=Nc3ccccc3Cc3ccccc32)CC1` [perlapine], the “brain and plasma levels” value in data set [2] is “measurable brain and plasma levels”. Moreover, the metabolism to clozapine entry in [2] is “no evidence of metabolism to clozapine”. For the same molecule, the Ki in [3] is 67.6 nM; in [8], 26.3 nM; in data set [9] it was 91.2 nM; in data set [11] it was 263 nM. For the same molecule, the EC50 in data set [4] was 158 nM; in data set [5], 63.1 nM; in data set [10], 56.2 nM; in [12] (read-out: pEC50 calcium mobilization (converted)), 8.32 nM; in data set [13], 4.17 nM; in [14] it was 53.7 nM. Also, the “agonist activity in IP1 assay” value in data set [6] is reported as “no agonist activity”. The “agonist activity in pERK1/2 assay” value in [7] was “no agonist activity”.
On to `C[N+]1([O-])CCN(C2=Nc3cc(Cl)ccc3Nc3ccccc32)CC1` [CNO, clozapine-N-oxide], for which the “higher binding affinity at hM4Di than at wildtype hM4” value in data set [3] (hM4Di vs hM4) is above 10 fold. The pKi is recorded as 6.30 (±0.22) N = 3 in data set [3] (hM4Di, FlpIn CHO cells, [3H]-NMS, mean (±SEM)); 6.74 (±0.10) N = 9 in data set [8] (hM1Dq, FlpIn CHO cells, [3H]-NMS, mean (±SEM)); 5.10 (±0.03) N = 7 in data set [9]; 4.85 (±0.05) N = 3 in [11]. Further, the “pEC50 pERK” value in [4] (hM1Dq, CHO cells, mean (±SEM)) was 7.70 (±0.25) N = 11; in data set [14] (hM4Di, CHO cells, mean (±SEM)), 6.89 (±0.12) N = 3. Moreover, in data set [5], the “pEC50 cAMP” value is 7.29 (±016) N = 4. In addition, the “metabolic transformation to clozapine” value in data set [15] (humans, nonhuman primates and guinea pigs) is “approximately 10%”; in data set [15] (rodents), “a few percent”. In data set [6], the “agonist activity in IP1 assay” value is “no agonist activity”. The “agonist activity in pERK1/2 assay” value in data set [7] is recorded as “no agonist activity”. For the same molecule, the “higher binding affinity at hM1Dq than at wildtype hM1” value in [8] (hM1Dq vs hM1) is listed as above 10 fold. Further, the “food intake, light cycle, sated mice” value in data set [16] (AgRP-ires-Cre mice with AAV-DIO-hM3Dq-mCherry, i.p.) was “increases feeding behavior in sated mice”; in data set [17] (SIM1-Cre mice with AAV-DIO-hM4Di-mCherry, i.p.), “increases feeding behavior in sated mice”. Moreover, the results for the “food intake in control mice” value in data set [16] (wildtype (non-Cre-expressing) littermates injected with AAV-DIO-hM3Dq-mCherry) and in data set [17] (wildtype (non-Cre-expressing) littermates injected with AAV-DIO-hM4Di-mCherry) were “neither C21 nor CNO affected feeding behavior” and “neither C21 nor CNO ligand influenced food intake”, respectively. For the same molecule, the pEC50 calcium mobilization in data set [12] was found to be 7.26±0.07. Moreover, the “pEC50 IP1” value in data set [13] (hM1Dq, CHO cells, mean (±SEM)) was 8.61 (±0.03) N = 10.
`CC(=O)OCC[N+](C)(C)C` [ACh, acetylcholine]: the “reduction in binding affinity at hM4Di vs wildtype” value in data set [3] (hM4Di vs hM4) is above 10 fold.
As to `CN1CCN(C2=Nc3cc(Cl)ccc3Nc3ccccc32)CC1` [clozapine, reference compound], the “level in cerebrospinal fluid (CSF)” value in data set [1] is recorded as 34 nM.
